In series [1] the test system is human EBC-1 cell subcutaneous xenograft model. In words: In vivo anti-tumor assessment in EBC-1 cell xenograft tumor mouse model. More on the design: species or system mice. As to conditions: 10 mg/kg P.O. QD × 15 days; for inhibition of growth of the tumor in mice (tumor volume change): FIG. 2. As to the method: Experimental objective: To investigate in vivo efficacy of representative compounds on human lung squamous carcinoma cell (human EBC-1 cell) subcutaneous xenograft model.
Experimental methods: The EBC-1 cell xenograft tumor mouse model was used, according to the diameters of tumor, the tumor volume (TV), relative tumor volume (RTV), relative tumor proliferation rate (T/C (%)) and tumor growth inhibition value (TGI (%)) were calculated.
TGI (%) or T/C (%) of the compounds was evaluated. TGI (%) reflects a tumor growth inhibitory rate. TGI (%) was calculated as follows: TGI (%)=[1−(average tumor volume at the end of administration in a treatment group-average tumor volume at the beginning of administration in the treatment group)/(average tumor volume at the end in a solvent control group-average tumor volume at the beginning in the solvent control group)]×100%.
T/C (%) was calculated as follows: T/C (%)=TRTV/CRTV×100%; where TRTV is treatment RTV, and CRTV is negative control RTV. According to the measurement results of the tumor, RTV was calculated, and the calculating formula for RTV is as follows: RTV=Vt/V0; where V0 is the average tumor volume measured on the day of first administration; and Vt is the average tumor volume measured on a specified day. TRTV and CRTV were measured on the same day.

Another series in a line: in vivo. The note with it: both, Kunming, mouse, po.
The subject of the next series is MKN-45 cells. In words: Anti-proliferation activity, CTG, MKN-45 cells. Format: cell-based. The note with it: Homo sapiens; MKN-45 cells, 48 h, CTG. As to the method:
(§1) Experimental objective: To evaluate the anti-proliferation activities of the compounds against MKN-45 cells, EBC-1 cells, Hs746T cells and Vero cells.
(§2) Experimental methods: Tumor cell lines were cultured and periodically passaged, and cells in logarithmic growth phase were taken for plate spreading. The cells were stained with Trypan blue, counted and adjusted to an appropriate density. 50 μL of cell suspension was added into each well of a culture plate, and 50 μL of nutrient solution without cells was added into a blank control well. The culture plate was precultured for 24 h in an incubator under the condition of 37° C., 5% CO2 and 100% relative humidity.
(§3) The DMSO stock solutions of the compounds 1-28 and Capmatinib were prepared, and diluted with Tecan D300e. Each compound was diluted to 7 concentration levels: 0.50 μM, 0.125 μM, 0.031 μM, 0.0078 μM, 0.0020 μM, 0.00049 μM, 0.00012 μM. The experiment was carried out in triplicate.
(§4) 50 μL of the solution was added into each designated well, and the culture plate was incubated for 48 h. 50 μL of CTG working solution was added to each well. The culture plate was wrapped with aluminum foil to avoid light and shaken in the shaker for 2 min to induce cell lysis. The culture plate was placed at room temperature for 10 min to stabilize light-emitting signal which was detected with a 2014 EnVision plate reader. Experimental data was processed by GraphPad Prism 7 to calculate IC50.

A further series deals with Hs746T cells. In words: Anti-proliferation activity, CTG, Hs746T cells. Format: cell-based. The note with it: Homo sapiens; Hs746T cells, 48 h, CTG. The protocol: as §1, §2, §3, §4
The subject of a further series is EBC-1 cells. In words: Anti-proliferation activity, CTG, EBC-1 cells. Format: cell-based, human. The note with it: Homo sapiens; EBC-1 cells, 48 h, CTG. As to the method: as §1, §2, §3, §4
The next series relates to Vero cells. In words: Anti-proliferation activity, CTG, Vero cells. The series is classed as cell-based. As to conditions: Chlorocebus sabaeus; Vero cells, 48 h, CTG. The protocol: as §1, §2, §3, §4
For a further series, the target named is c-MET (Homo sapiens (Human), UniProt P08581). In words: c-MET kinase inhibitory activity (ELISA, poly(Glu,Tyr) substrate). Format: biochemical. As to conditions: ATP 4 μM, 37° C. 1 h; read-out: c-MET kinase inhibitory enzymatic activity IC50. A general note: An ELISA detects its analyte on a solid surface through an enzyme-linked reagent.
c-MET, sequence (P08581 25-1390): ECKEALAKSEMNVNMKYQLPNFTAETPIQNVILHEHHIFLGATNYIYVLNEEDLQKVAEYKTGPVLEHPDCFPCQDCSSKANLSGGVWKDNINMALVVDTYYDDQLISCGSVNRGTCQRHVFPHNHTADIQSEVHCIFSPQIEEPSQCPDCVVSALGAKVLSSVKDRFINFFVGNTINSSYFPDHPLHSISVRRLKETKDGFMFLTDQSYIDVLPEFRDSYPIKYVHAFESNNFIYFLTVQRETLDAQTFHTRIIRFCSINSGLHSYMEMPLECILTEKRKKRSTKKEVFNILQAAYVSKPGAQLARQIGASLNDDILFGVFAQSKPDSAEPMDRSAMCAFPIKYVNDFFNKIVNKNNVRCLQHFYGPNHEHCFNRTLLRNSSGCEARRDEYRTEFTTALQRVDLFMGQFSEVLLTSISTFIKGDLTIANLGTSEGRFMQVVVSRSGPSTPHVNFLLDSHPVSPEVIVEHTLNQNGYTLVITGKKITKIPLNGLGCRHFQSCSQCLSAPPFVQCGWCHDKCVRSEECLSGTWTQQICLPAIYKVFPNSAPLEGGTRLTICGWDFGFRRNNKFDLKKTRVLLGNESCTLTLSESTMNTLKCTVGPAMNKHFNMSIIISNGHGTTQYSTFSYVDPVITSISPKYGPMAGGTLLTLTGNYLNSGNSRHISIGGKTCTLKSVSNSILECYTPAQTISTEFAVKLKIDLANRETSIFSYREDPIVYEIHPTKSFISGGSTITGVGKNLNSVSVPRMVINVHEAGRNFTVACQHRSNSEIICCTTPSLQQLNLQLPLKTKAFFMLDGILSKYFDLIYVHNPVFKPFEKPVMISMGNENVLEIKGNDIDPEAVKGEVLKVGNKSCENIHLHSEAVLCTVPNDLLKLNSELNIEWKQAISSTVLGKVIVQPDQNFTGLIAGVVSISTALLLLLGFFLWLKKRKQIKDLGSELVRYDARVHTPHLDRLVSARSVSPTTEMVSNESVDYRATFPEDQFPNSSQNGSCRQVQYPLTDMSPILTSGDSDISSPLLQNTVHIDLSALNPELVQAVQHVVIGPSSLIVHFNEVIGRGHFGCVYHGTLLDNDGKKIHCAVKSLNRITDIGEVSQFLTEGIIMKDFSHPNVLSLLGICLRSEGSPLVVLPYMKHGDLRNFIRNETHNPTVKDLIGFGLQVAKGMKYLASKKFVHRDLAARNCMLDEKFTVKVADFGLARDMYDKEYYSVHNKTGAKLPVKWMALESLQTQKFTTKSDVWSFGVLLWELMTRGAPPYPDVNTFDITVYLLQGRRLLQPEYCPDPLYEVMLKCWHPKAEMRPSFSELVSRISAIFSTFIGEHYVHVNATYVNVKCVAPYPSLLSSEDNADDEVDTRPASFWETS

The term LD50 denotes the dose expected to kill half of the subjects tested. As a reminder, the IC50 is the concentration needed to halve the response being measured. For the compound `CNC(=O)c1ccc(-c2cnc3ncc(Cc4ccc5ncccc5c4)n3n2)cc1F` [Capmatinib, reference compound], in series [1], the “T/C(%)” value turned out to be 24.97%. The “TGI(%)” value in series [1] came out at 91.23%. In addition, the “Tumor Volume (Day 15)” value in series [1] is given as 225 ± 25 mm^3. Also, the “changes in body weight of the mice” value in series [1] (end of the experiment, FIG. 1) is “greater losses in body weight compared to those in the other groups”. Also, the “inhibition of growth of the tumor in mice (tumor volume change)” value in series [1] (end of the experiment) is “could effectively inhibit the growth of the tumor in mice”. For the same compound, the LD50 in the series “in vivo” stood at 164 mg/kg. For the same compound, the IC50 came to 5.7 nM in the series with MKN-45 cells, 4.5 nM with Hs746T cells, 3.9 nM with EBC-1 cells and 68 nM in the series on Vero cells.
Consider `CNC(=S)c1ccc(-c2cnc3ncc(Cc4ccc5ncccc5c4)n3n2)cc1NC` [Compound 10], for which the LD50 in “in vivo” stood at 292 mg/kg. Also, the IC50 turned out to be 1.8 nM in the series with MKN-45 cells; 1.5 nM in the series on Hs746T cells; 1.9 nM in the series with EBC-1 cells; 0.0016 nM at c-MET; 164 nM in the series with Vero cells.
In the case of `CNC(=S)c1ccc(-c2cnc3ncc(Cc4ccc5ncccc5c4)n3n2)cc1O` [Compound 11], in “in vivo”, the LD50 was 296 mg/kg. For the same compound, the IC50 in the series with MKN-45 cells worked out at 1.4 nM; with Hs746T cells, 1.4 nM; in the series on EBC-1 cells, 1.8 nM; at c-MET, 0.0025 nM; in the series with Vero cells, 231 nM.
`Fc1cc(-c2cnc3ncc(Cc4ccc5ncccc5c4)n3n2)ccc1C(=S)NC1CC1` [Compound 4] gave a 50% lethal dose (LD50) in “in vivo” of 320 mg/kg. For the same compound, the IC50 was found to be 1.9 nM in the series with MKN-45 cells; 1.4 nM in the series on Hs746T cells; 1.8 nM in the series with EBC-1 cells; 0.0025 nM at c-MET; 216 nM with Vero cells.
For `CNC(=S)c1ccc(-c2cnc3ncc(Cc4ccc5nccnc5c4)n3n2)cc1F` [Compound 17], in series [1], the “T/C(%)” value amounted to 20.42%. For the same compound, in series [1], the “TGI(%)” value is recorded as 96.76%. Moreover, the “Tumor Volume (Day 15)” value in series [1] is listed as 184 ± 27 mm^3. In addition, in series [1] (end of the experiment), the “inhibition of growth of the tumor in mice (tumor volume change)” value is “better inhibitory effects”. The compound also gave an LD50 in the series “in vivo” of 318 mg/kg. Besides, the IC50 stood at 1.2 nM in the series with MKN-45 cells; 1.2 nM in the series with Hs746T cells; 1.6 nM in the series with EBC-1 cells; 0.0016 nM at c-MET; 123 nM in the series with Vero cells.
As to `CNC(=S)c1ccc(-c2cnc3ncc(Cc4ccc5ncccc5c4)n3n2)cc1OC` [Compound 12], the LD50 in “in vivo” was found to be 286 mg/kg. Besides, the 50% inhibitory concentration (IC50) with MKN-45 cells stood at 1.1 nM; in the series on Hs746T cells, 1.1 nM; in the series with EBC-1 cells, 1.7 nM; on c-MET, 0.0019 nM; in the series with Vero cells, 236 nM.
For `CNC(=S)c1ccc(-c2cnc3ncc(Cc4ccc5ncccc5c4)n3n2)cc1N` [Compound 9], the LD50 in the series “in vivo” worked out at 297 mg/kg. Moreover, the IC50 with MKN-45 cells worked out at 1.8 nM; in the series with Hs746T cells, 1.4 nM; in the series on EBC-1 cells it was 1.6 nM; on c-MET it was 0.0017 nM; in the series on Vero cells, 252 nM.

For the origin of these results see US20240294535A1, “IMIDAZOTRIAZINE THIOBENZAMIDE DERIVATIVE, AND PREPARATION METHOD AND APPLICATION THEREOF” (Yunbaiyao Zhengwu Science and Technology (Shanghai) Co., …, priority 2023, published 2024).
